Measured values from publication PMC6853232, “Discovery and evaluation of novel synthetic 5-alkyl-4-oxo-4,5-dihydro-[1,2,4]triazolo[4,3-a]quinoxaline-1-carbox-amide derivatives as anti-inflammatory agents” (Journal of Enzyme Inhibition and Medicinal Chemistry, 2019).
Where “and” joins values, the source holds several entries; their conditions need not be identical. Equal entries are not always repeated.

Experiments:
[1] = system: LPS-induced NO production in RAW264.7 macrophages; assay: Inhibition of LPS-induced NO production (Griess); type: cell-based, mouse
Procedure: The RAW 264.7 mouse macrophage cell line was obtained from the China Cell Line Bank (Beijing, China). Cells were cultured in complete medium (DMEM supplemented with 10% heat-inactivated FBS, 3 mM glutamine and antibiotics (100 U/mL penicillin and 100 U/mL streptomycin)) at 37 °C in a humidified incubator containing 5% CO2 and 95% air. Cells were treated with various concentrations of synthesised compounds for 30 min followed by stimulation with LPS ([…]).
Nitrite, a stable product of nitric oxide, was used to assess NO production. To study the effects of the isolated compounds on NO production, RAW264.7 cells were plated at 1 × 10^5 cells/well in a 96-well microplate and incubated overnight. The cells were pre-treated with various concentrations of the test compounds (3, 7.5, 10, 15, 30 or 100 µM) and further co-cultured with 1 µg/mL LPS for 24 h. Un-pre-treated and un-stimulated RAW 264.7 cells were conducted as the blank control group. At different time points, the supernatant (50 µL) was assayed with NO assay kit. The culture supernatant (50 µL) was mixed with an equal volume of the Griess reagent (1% sulphanilamide, 0.1% N-[1-naphthy] ethylenediamine dihydrochloride) and NO production were determined at 540 nm with an ELISAplate reader.

[2] = system: phosphorylation of JNK in RAW 264.7 cells; assay: Western blot, LPS-induced phosphorylation of JNK; type: cell-based, mouse
Procedure: (§1) RAW 264.7 cells (5 × 10^5 cells/well) plated onto 6-well plates were incubated for 24 h and treated with 7.5, 15.0 or 30.0 µM of compound 6p for 30 min and then stimulated with […] of LPS for 24 h. The cells were collected and washed three times with ice-cold PBS. The cells were treated with a cell lysis buffer [50 mM Tris (pH 7.6), 150 mM NaCl, 5 mM EDTA (pH 8.0), 0.6% NP-40, 1 mM Na3VO4, 20 mM β-glycerophosphate, 1 mM phenylmethylsulfonyl fluoride, 2 mM p-nitrophenyl phosphate, and 1:25 Complete Mini Protease Inhibitor cocktail (Boehringer, Mannheim,Germany)] and kept on ice for 30 min. The cell lysates were centrifuged (12,000 g at 4 °C) for 5 min to obtain a cytosolic fraction. The protein concentration was determined by BCA protein assay kit (Beyotime, Haimen, China). Aliquots of the lysates were separated on 10% sodium dodecyl sulphate (SDS)-polyacrylamide gel electrophoresis (PAGE) and then electro blotted onto a polyvinylidene difluoride (PVDF) membrane. The blots were blocked with 5% (w/v) non-fat dry milk for 2 h at 37 °C, followed by incubation with specific primary antibody at 4 °C overnight. […] Blots were again washed with TTBS and the immune active proteins were detected using ECL plus (Thermo, USA). […] Results are expressed as the relative ratio of the specific band compared with the internal reference.

[3] = system: phosphorylation of ERK in RAW 264.7 cells; assay: Western blot, LPS-induced phosphorylation of ERK; type: cell-based, mouse
Procedure: as §1

[4] = system: carrageenan-induced paw oedema; assay: Carrageenan-induced paw oedema model; type: in vivo, rats; settings: 25 mg/kg p.o., n = 4
Source text: The animal procedures were in strict accordance with the National Institutes of Healthy Guidelines for the Care and Use of Laboratory Animals (NIH Publication No. 85-23, revised 1996) and were approved by the Institutional Animal Care and Utilisation Committee of Yanbian University. Male albino rats weighing 280–300 gwere obtained from Animal Department of Yanbian University . They were kept in the animal house under standard condition of light and temperature with free access to food and water. The animals were randomly divided into five groups (control, D1, 6p, ibuprofen and celecoxib group) The groups with D1, 6p, ibuprofen and celecoxib were administered oral administration (p.o.) 25 mg/kg in a vehicle of 0.5% methylcellulose, respectively. The negative control group was treated with the same vehicle (0.5% methylcellulose). A solution of carrageenan (0.1 ml, 1.0% w/v in 0.9% of normal saline) was injected into the subplanter region of the left hind paw under light ether anaesthesia 1 h after oral administration (p.o.) of the test compound (at a dose level of 25 mg/kg body weight). The paw volume was measured at hourly interval for 5 h (0, 1, 3 and 5 h) and the percent inhibition of oedema was calculated using formula: %Inhibition=(Vt−Vo)control−(Vt−Vo)tested compound /(Vt−Vo)control×100 where, • Vo = volume of oedema at zero time interval. • Vt = volume of oedema at specific time interval.

[5] = system: gastric mucosa (stomach lesions); assay: Ulcerogenic effect; type: in vivo; settings: 25 mg/kg p.o. once a day for three days, rats
Procedure: The lead compound D1 and the newly synthesised compound 6p were subjected to in vivo testing to measure their ulcerogenic effect in comparison to celecoxib and ibuprofen. Male albino rats (220–250 g) divided into 5 groups (control, D1, 6p, ibuprofen and celecoxib group) of five rats each. The groups with D1, 6p, ibuprofen, and celecoxib were administered oral administration (p.o.) 25 mg/kg in a vehicle of 0.5% methylcellulose, respectively. The negative control group was treated with the same vehicle (0.5% methylcellulose). All groups were orally administered once a day for three consecutive days. Animals were sacrificed by diethyl ether 6 h after the last dose and the stomach was removed. An opening at the greater curvature was made and the stomach was cleaned by washing with cold saline and inspected with a three-time magnifying lens for any evidence of hyperaemia, haemorrhage, definite haemorrhagic erosion, or ulcer. An arbitrary scale was used to calculate the ulcer index which indicates the severity of the stomach lesions The % ulceration for each group was calculated as follows: % Ulceration = Number of animals bearing ulcer in a group/Total number of animals in the same group ×100.

Structure (SMILES): COc1cc(Cn2c(=O)c3nnc(C(N)=O)n3c3ccccc32)cc(OC)c1OC [6p, 5-(3,4,5-trimethoxybenzyl)-4-oxo-4,5-dihydro-[1,2, 4]triazolo[4,3-a]quinoxaline-1-carboxamide]
- melting point: 286 to 288 °C
- inhibition of NO production ([1]; 3 µM, p < .001 vs LPS alone): significantly inhibit
- inhibition at 10 µM ([1]; Mus musculus, RAW264.7, 10 µM, LPS 1 µg/mL, 24 h, read-out: NO inhibitory activity (% inhibition)): 38.8%
- phosphorylation of JNK ([2]; 30 µM, p < .001): markedly diminished
- LPS-induced phosphorylation of JNK, concentration dependence ([2]; 7.5, 15 and 30 µM): concentration-dependent manner
- phosphorylation of ERK ([3]; 30 µM, p < .001): markedly diminished
- LPS-induced phosphorylation of ERK, concentration dependence ([3]; 7.5, 15 and 30 µM): concentration-dependent manner
- % of oedema inhibition (% mean ± SD) ([4]; 1 h): 37.01 ± 8.45%
- % of oedema inhibition (% mean ± SD) ([4]; 3 h, 25 mg/kg): 50.83% and 50.83 ± 3.47%
- % of oedema inhibition (% mean ± SD) ([4]; 5 h): 38.24 ± 6.04%
- % ulceration [5]: 20%
